Values joined by “and” are separate entries in the source; they are usually repeats but may differ in a detail not shown here. Equal values may be shown once. HELM strings list units from the 5' end as sugar, base in round brackets, then linkage (d deoxyribose, r ribose, m 2'-O-methyl, p phosphodiester). Methylation of C is not given here. [moe] = 2'-O-(2-methoxyethyl) (MOE); [cEt] = constrained ethyl (cEt); [sp] = phosphorothioate linkage
Target: HBV
Settings: ASO

RNA1{[moe](A)[sp].[moe](C)[sp].d(T)[sp].d(G)[sp].d(G)[sp].d(A)[sp].d(G)[sp].d(C)[sp].d(C)[sp].d(A)[sp].d(C)[sp].[moe](C)[sp].[moe](A)[sp].[moe](G)[sp].[moe](C)[sp].[moe](A)[sp].[moe](G)}$$$$V2.0
target mRNA inhibition (HepG2, 0.07 µM): 70% and 61%

RNA1{[moe](C)[sp].[moe](A)[sp].[moe](G)[sp].[moe](A)[sp].d(G)[sp].d(G)[sp].d(T)[sp].d(G)[sp].d(A)[sp].d(A)[sp].d(G)[sp].d(C)[sp].d(G)[sp].[moe](A)[sp].[moe](A)[sp].[moe](G)}$$$$V2.0
target mRNA inhibition (HepG2, 0.07 µM): 47% and 50%

RNA1{[moe](G)[sp].[cEt](A)[sp].d(G)[sp].d(A)[sp].d(G)[sp].d(A)[sp].d(A)[sp].d(G)[sp].d(T)[sp].d(C)[sp].d(C)[sp].d(A)[sp].[cEt](C)[sp].[moe](C)[sp].[cEt](A)[sp].[moe](C)}$$$$V2.0
target mRNA inhibition (HepG2, 0.07 µM): 42% and 56%

RNA1{[moe](A)[sp].[cEt](G)[sp].[cEt](C)[sp].d(T)[sp].d(T)[sp].d(G)[sp].d(G)[sp].d(A)[sp].d(G)[sp].d(G)[sp].d(C)[sp].d(T)[sp].d(T)[sp].[cEt](G)[sp].[cEt](A)[sp].[moe](A)}$$$$V2.0
target mRNA inhibition (HepG2, 0.07 µM): 5% and 0%

RNA1{[moe](G)[sp].[moe](T)[sp].[moe](G)[sp].[moe](A)[sp].d(A)[sp].d(G)[sp].d(C)[sp].d(G)[sp].d(A)[sp].d(A)[sp].d(G)[sp].d(T)[sp].d(G)[sp].[moe](C)[sp].[moe](A)[sp].[moe](C)[sp].[moe](A)}$$$$V2.0
target mRNA inhibition (HepG2, 0.07 µM): 72% and 62%

RNA1{[moe](C)[sp].[cEt](G)[sp].d(C)[sp].d(A)[sp].d(G)[sp].d(T)[sp].d(A)[sp].d(T)[sp].d(G)[sp].d(G)[sp].d(A)[sp].d(T)[sp].[cEt](C)[sp].[moe](G)[sp].[cEt](G)[sp].[moe](C)}$$$$V2.0
target mRNA inhibition (HepG2, 0.0092593 µM): 22% | target mRNA inhibition (HepG2, 0.0277778 µM): 49% | target mRNA inhibition (HepG2, 0.07 µM): 83% and 92% | target mRNA inhibition (HepG2, 0.0833333 µM): 82% | target mRNA inhibition (HepG2, 0.25 µM): 91%

RNA1{[moe](A)[sp].[moe](C)[sp].[moe](T)[sp].[moe](G)[sp].[moe](G)[sp].d(A)[sp].d(G)[sp].d(C)[sp].d(C)[sp].d(A)[sp].d(C)[sp].d(C)[sp].d(A)[sp].d(G)[sp].[moe](C)[sp].[moe](A)}$$$$V2.0
target mRNA inhibition (HepG2, 0.07 µM): 54% and 48%

RNA1{[moe](G)[sp].[moe](A)[sp].d(A)[sp].d(C)[sp].d(T)[sp].d(G)[sp].d(G)[sp].d(A)[sp].d(G)[sp].d(C)[sp].d(C)[sp].[moe](A)[sp].[moe](C)[sp].[moe](C)[sp].[moe](A)[sp].[moe](G)}$$$$V2.0
target mRNA inhibition (HepG2, 0.07 µM): 40% and 18%

RNA1{[moe](T)[sp].[moe](C)[sp].d(C)[sp].d(G)[sp].d(C)[sp].d(A)[sp].d(G)[sp].d(T)[sp].d(A)[sp].d(T)[sp].d(G)[sp].[moe](G)[sp].[moe](A)[sp].[moe](T)[sp].[moe](C)[sp].[moe](G)[sp].[moe](G)}$$$$V2.0
target mRNA inhibition (HepG2, 0.07 µM): 74% and 70%

RNA1{[moe](A)[sp].[moe](C)[sp].[moe](C)[sp].d(A)[sp].d(A)[sp].d(T)[sp].d(T)[sp].d(T)[sp].d(A)[sp].d(T)[sp].d(G)[sp].d(C)[sp].[moe](C)[sp].[moe](T)[sp].[moe](A)[sp].[moe](C)[sp].[moe](A)}$$$$V2.0
target mRNA inhibition (HepG2, 0.07 µM): 31% and 33%

RNA1{[moe](G)[sp].[cEt](T)[sp].d(G)[sp].d(C)[sp].d(A)[sp].d(G)[sp].d(A)[sp].d(G)[sp].d(G)[sp].d(T)[sp].d(G)[sp].d(A)[sp].[cEt](A)[sp].[moe](G)[sp].[cEt](C)[sp].[moe](G)}$$$$V2.0
target mRNA inhibition (HepG2, 0.0092593 µM): 14% | target mRNA inhibition (HepG2, 0.0277778 µM): 33% | target mRNA inhibition (HepG2, 0.07 µM): 74% and 83% | target mRNA inhibition (HepG2, 0.0833333 µM): 70% | target mRNA inhibition (HepG2, 0.25 µM): 77%

RNA1{[moe](G)[sp].[moe](G)[sp].[moe](C)[sp].[moe](A)[sp].d(T)[sp].d(A)[sp].d(G)[sp].d(C)[sp].d(A)[sp].d(G)[sp].d(C)[sp].d(A)[sp].d(G)[sp].[moe](G)[sp].[moe](A)[sp].[moe](T)}$$$$V2.0
target mRNA inhibition (HepG2, 0.07 µM): 57% and 50%

RNA1{[moe](A)[sp].[moe](T)[sp].d(T)[sp].d(T)[sp].d(A)[sp].d(T)[sp].d(G)[sp].d(C)[sp].d(C)[sp].d(T)[sp].d(A)[sp].[moe](C)[sp].[moe](A)[sp].[moe](G)[sp].[moe](C)[sp].[moe](C)}$$$$V2.0
target mRNA inhibition (HepG2, 0.07 µM): 36% and 25%

RNA1{[moe](G)[sp].[moe](A)[sp].[moe](G)[sp].[moe](G)[sp].d(T)[sp].d(G)[sp].d(A)[sp].d(A)[sp].d(G)[sp].d(C)[sp].d(G)[sp].d(A)[sp].d(A)[sp].[moe](G)[sp].[moe](T)[sp].[moe](G)}$$$$V2.0
target mRNA inhibition (HepG2, 0.07 µM): 14% and 26%

RNA1{[moe](A)[sp].[moe](G)[sp].[moe](G)[sp].[moe](C)[sp].[moe](A)[sp].d(T)[sp].d(A)[sp].d(G)[sp].d(C)[sp].d(A)[sp].d(G)[sp].d(C)[sp].d(A)[sp].d(G)[sp].[moe](G)[sp].[moe](A)[sp].[moe](T)}$$$$V2.0
target mRNA inhibition (HepG2, 0.07 µM): 61% and 56%

RNA1{[moe](A)[sp].[moe](G)[sp].[moe](G)[sp].[moe](A)[sp].[moe](G)[sp].d(T)[sp].d(T)[sp].d(C)[sp].d(C)[sp].d(G)[sp].d(C)[sp].d(A)[sp].d(G)[sp].d(T)[sp].[moe](A)[sp].[moe](T)}$$$$V2.0
target mRNA inhibition (HepG2, 0.07 µM): 62% and 48%

RNA1{[moe](C)[sp].[moe](A)[sp].[moe](G)[sp].[moe](A)[sp].[moe](G)[sp].[moe](G)[sp].d(T)[sp].d(G)[sp].d(A)[sp].d(A)[sp].d(G)[sp].d(C)[sp].d(G)[sp].d(A)[sp].d(A)[sp].[moe](G)[sp].[moe](T)}$$$$V2.0
target mRNA inhibition (HepG2, 0.07 µM): 81% and 58%

RNA1{[moe](C)[sp].[cEt](G)[sp].d(A)[sp].d(A)[sp].d(C)[sp].d(C)[sp].d(A)[sp].d(C)[sp].d(T)[sp].d(G)[sp].d(A)[sp].d(A)[sp].[cEt](C)[sp].[moe](A)[sp].[cEt](A)[sp].[moe](A)}$$$$V2.0
target mRNA inhibition (HepG2, 0.07 µM): 45% and 49%

RNA1{[moe](T)[sp].[moe](C)[sp].[moe](C)[sp].[moe](G)[sp].[moe](C)[sp].d(A)[sp].d(G)[sp].d(T)[sp].d(A)[sp].d(T)[sp].d(G)[sp].d(G)[sp].d(A)[sp].d(T)[sp].[moe](C)[sp].[moe](G)}$$$$V2.0
target mRNA inhibition (HepG2, 0.07 µM): 75% and 59%

RNA1{[moe](A)[sp].[cEt](C)[sp].[cEt](A)[sp].d(G)[sp].d(C)[sp].d(T)[sp].d(T)[sp].d(G)[sp].d(G)[sp].d(A)[sp].d(G)[sp].d(G)[sp].d(C)[sp].[cEt](T)[sp].[cEt](T)[sp].[moe](G)}$$$$V2.0
target mRNA inhibition (HepG2, 0.07 µM): 10% and 0%

RNA1{[moe](T)[sp].[cEt](T)[sp].d(T)[sp].d(A)[sp].d(T)[sp].d(G)[sp].d(C)[sp].d(C)[sp].d(T)[sp].d(A)[sp].d(C)[sp].d(A)[sp].[cEt](G)[sp].[moe](C)[sp].[cEt](C)[sp].[moe](T)}$$$$V2.0
target mRNA inhibition (HepG2, 0.07 µM): 8% and 1%

RNA1{[moe](T)[sp].[cEt](T)[sp].d(C)[sp].d(C)[sp].d(G)[sp].d(C)[sp].d(A)[sp].d(G)[sp].d(T)[sp].d(A)[sp].d(T)[sp].d(G)[sp].[cEt](G)[sp].[moe](A)[sp].[cEt](T)[sp].[moe](C)}$$$$V2.0
target mRNA inhibition (HepG2, 0.07 µM): 50% and 39%

RNA1{[moe](G)[sp].[moe](C)[sp].d(A)[sp].d(T)[sp].d(A)[sp].d(G)[sp].d(C)[sp].d(A)[sp].d(G)[sp].d(C)[sp].d(A)[sp].[moe](G)[sp].[moe](G)[sp].[moe](A)[sp].[moe](T)[sp].[moe](G)}$$$$V2.0
target mRNA inhibition (HepG2, 0.07 µM): 39% and 24%

— the OligoGym collection
